pKi: −log10 of the molar value.
Experiments:
[1] = molecular target: T1, human MR (Homo sapiens, UniProt P08235); experiment: Mineralocorticoid Receptor Binding Assay ([3H]-aldosterone); settings: [3H]-aldosterone binding, human MR expressed in Sf9 cells; read-out: MR Ki
T1 construct: The full length human MR gene is cloned from a human kidney or human brain cDNA library; His tag from the pAcHLT vector (own knowledge); made in house; host or cells: Sf9 insect cells (baculovirus, pAcHLT transfer vector)
T1 sequence (P08235 1-984): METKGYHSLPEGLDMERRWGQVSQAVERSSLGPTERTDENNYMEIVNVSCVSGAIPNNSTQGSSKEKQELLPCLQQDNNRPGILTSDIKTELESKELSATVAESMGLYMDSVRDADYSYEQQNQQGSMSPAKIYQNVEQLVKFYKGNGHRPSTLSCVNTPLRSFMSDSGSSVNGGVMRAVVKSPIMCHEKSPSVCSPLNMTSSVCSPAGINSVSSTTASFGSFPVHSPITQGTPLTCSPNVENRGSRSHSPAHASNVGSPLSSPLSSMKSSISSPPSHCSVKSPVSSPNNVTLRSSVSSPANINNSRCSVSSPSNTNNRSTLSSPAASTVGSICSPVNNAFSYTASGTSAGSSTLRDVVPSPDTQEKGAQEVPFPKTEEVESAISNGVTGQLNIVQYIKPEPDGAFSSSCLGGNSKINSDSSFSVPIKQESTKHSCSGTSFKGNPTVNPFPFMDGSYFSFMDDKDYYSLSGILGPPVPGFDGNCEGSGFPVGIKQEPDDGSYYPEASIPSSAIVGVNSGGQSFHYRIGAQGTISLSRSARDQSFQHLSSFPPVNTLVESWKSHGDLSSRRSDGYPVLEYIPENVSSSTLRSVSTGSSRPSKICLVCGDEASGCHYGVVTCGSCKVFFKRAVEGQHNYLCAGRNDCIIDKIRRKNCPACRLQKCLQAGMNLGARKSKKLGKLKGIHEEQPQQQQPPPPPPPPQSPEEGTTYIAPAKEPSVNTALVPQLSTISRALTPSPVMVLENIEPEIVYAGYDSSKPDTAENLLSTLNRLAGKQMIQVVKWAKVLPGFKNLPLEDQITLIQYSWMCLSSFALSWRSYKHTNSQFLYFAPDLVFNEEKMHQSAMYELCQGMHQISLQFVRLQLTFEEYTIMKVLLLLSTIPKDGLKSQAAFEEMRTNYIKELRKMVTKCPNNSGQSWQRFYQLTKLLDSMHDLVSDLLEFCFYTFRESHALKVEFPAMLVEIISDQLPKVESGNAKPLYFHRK
Procedure, shortened: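 Receptor source: freeze-thaw lysate of baculovirus-infected Sf9 cells carrying full-length human MR, 20-25 μg protein. Incubation ~16 h at 4 °C with shaking, pH 7.5 buffer containing 30 mM sodium molybdate and 10% glycerol.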

[2] = molecular target: T2, glucocorticoid receptor (Homo sapiens, UniProt P04150); experiment: Glucocorticoid Receptor Binding Assay ([3H]-dexamethasone, A549 cell extract); settings: [3H]-dexamethasone binding, read-out: GR Ki
T2 construct: containing 50-200 ug of A549 cell extract and 1.86 nM [^3H]-dexamethasone; host or cells: A549 human lung epithelial cells (sonicated cell extract)
T2 sequence (P04150 1-777): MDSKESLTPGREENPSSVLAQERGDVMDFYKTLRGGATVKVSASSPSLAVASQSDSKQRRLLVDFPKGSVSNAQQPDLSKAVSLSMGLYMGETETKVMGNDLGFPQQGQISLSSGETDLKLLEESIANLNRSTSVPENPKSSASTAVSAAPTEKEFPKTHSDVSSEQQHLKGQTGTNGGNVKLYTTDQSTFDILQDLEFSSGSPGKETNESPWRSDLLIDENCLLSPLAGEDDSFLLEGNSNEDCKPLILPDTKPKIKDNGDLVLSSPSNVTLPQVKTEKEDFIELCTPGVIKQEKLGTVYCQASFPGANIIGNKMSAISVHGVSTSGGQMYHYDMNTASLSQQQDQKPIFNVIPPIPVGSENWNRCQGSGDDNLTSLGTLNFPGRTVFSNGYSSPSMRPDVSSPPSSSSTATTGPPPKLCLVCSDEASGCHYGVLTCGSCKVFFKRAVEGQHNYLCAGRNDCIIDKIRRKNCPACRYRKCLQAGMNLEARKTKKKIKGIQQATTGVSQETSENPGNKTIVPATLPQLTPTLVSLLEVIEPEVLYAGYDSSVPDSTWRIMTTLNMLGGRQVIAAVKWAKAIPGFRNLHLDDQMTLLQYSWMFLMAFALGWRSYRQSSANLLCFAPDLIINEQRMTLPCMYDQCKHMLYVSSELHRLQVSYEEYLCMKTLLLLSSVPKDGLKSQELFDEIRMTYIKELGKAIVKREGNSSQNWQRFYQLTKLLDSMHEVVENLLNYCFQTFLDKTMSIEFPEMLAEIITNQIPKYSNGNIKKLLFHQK
Procedure, shortened: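 Displacement of [3H]-dexamethasone (1.86 nM) from glucocorticoid receptor in sonicated A549 lung epithelial cell extracts, 16 h at 4 °C, pH 7.2 molybdate-containing buffer. Bound radioactivity was scintillation-counted after charcoal/dextran stripping of free ligand.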

pKi [1]	pKi [2]	Compound
> 6.30	> 6.30	COc1ccc2c(c1)CCc1cc(C)ccc1/C2=C/c1cccc(NS(C)(=O)=O)c1 [Example 424]
> 6.30	> 6.30	Oc1cccc(C=C2c3ccccc3CCc3cc(F)ccc32)c1 [200(a), 3-(2-Fluoro-10,11-dihydro-dibenzo[a,d]cyclohepten-5-ylidenemethyl)-phenol]
> 6.30	> 5.00	C(=C1c2ccccc2CCc2ccccc21)c1cn[nH]c1 [Example 237, 4-(10,11-Dihydro-dibenzo[a,d]cyclohepten-5-ylidenemethyl)-1H-pyrazole]
> 6.30	> 6.30	Cc1cccc2c1CCc1ccccc1C2=Cc1cccc(NS(C)(=O)=O)c1 [Example 303]
> 6.30	> 6.30	COc1ccc2c(c1)COc1ccccc1/C2=C(\C)c1cccc(NS(C)(=O)=O)c1 [Example 818]
> 6.30	> 6.30	Cc1nc2c(s1)/C(=C/c1cccc(NS(C)(=O)=O)c1)c1ccccc1CC2 [483(a), N-[3-(2-Methyl-9,10-dihydro-3-thia-1-aza-benzo[f]azulen-4-ylidenemethyl)-phenyl]-methanesulfonamide]
> 6.30	> 6.30	CS(=O)(=O)NCc1cccc(C=C2c3ccccc3CCc3ccccc32)c1 [Example 145, N-[3-(10,11-Dihydro-dibenzo[a,d]cyclohepten-5-ylidenemethyl)-benzyl]-methanesulfonamide]
> 6.30	> 6.00	COCC(=O)Nc1cccc(C=C2c3ccccc3CCc3cc(Cl)ccc32)c1 [Example 299]
> 6.30	> 6.30	O=c1[nH]c2cc(C=C3c4cccc(F)c4CCc4c(F)cccc43)ccc2o1 [Example 471]
> 6.30	> 5.00	C(=C1c2ccccc2CCc2ccccc21)c1ccc2ocnc2c1 [Example 217, 5-(10,11-Dihydro-dibenzo[a,d]cyclohepten-5-ylidenemethyl)-benzooxazole]
> 6.30	> 6.00	CS(=O)(=O)Nc1cccc(/C=C2/c3ccccc3CCc3cc(C(=O)O)ccc32)c1 [Example 418]
> 6.30	> 6.30	Oc1cccc(C=C2c3ccccc3C3CC3c3ccccc32)c1 (centres unmarked) [Example 258]
> 6.30	> 5.00	CCC(=C1c2ccccc2CCc2ccccc21)c1cccc(N)c1 [Example 760]
> 6.30	> 6.30	CS(=O)(=O)Nc1cccc(/C=C2/c3ccccc3CCc3ccc(S(C)(=O)=O)cc32)c1 [Example 323]
> 6.30	> 6.30	CS(=O)(=O)Nc1cccc(/C=C2\c3ccccc3CCc3nc(N)sc32)c1 [Example 559]
> 6.30	> 6.30	COc1ccc2c(c1)CCc1cc(OC)ccc1C2=Cc1ccc(OCCN2CCCCC2)cc1 [Example 333]
> 6.30	> 6.30	CS(=O)(=O)Nc1cccc(/C=C2\c3ccccc3CCc3cc(S(C)(=O)=O)ccc32)c1 [Example 392]
> 6.30	> 6.30	CS(=O)(=O)Nc1cccc(C(CO)=C2c3ccccc3CCc3ccccc32)c1 [Example 755, N-{3-[1-(10,11-Dihydro-dibenzo[a,d]cyclohepten-5-ylidene)-2-hydroxy-ethyl]-phenyl}-methanesulfonamide]
> 6.30	> 6.00	C(=C1c2ccccc2CCc2ccccc21)c1ccccc1-c1cccnc1 [Example 228, 3-[2-(10,11-Dihydro-dibenzo[a,d]cyclohepten-5-ylidenemethyl)-phenyl]-pyridine]

pKi [1]	pKi [2]	Compound
> 6.30	> 6.00	Cc1ccc2c(c1)C(=Cc1ccc(NS(C)(=O)=O)cc1)c1ccccc1CC2 [Example 305]
> 6.30	> 6.30	CS(=O)(=O)Nc1cccc(C=C2c3ccccc3CCc3c(Cl)cccc32)c1 [Example 205(b), N-[3-(1-Chloro-10,11-dihydro-dibenzo[a,d]cyclohepten-5-ylidenemethyl)-phenyl]-methanesulfonamide]
> 6.00	> 6.30	Oc1cccc(/C=C2/c3ccccc3CCc3ccncc32)c1 [Example 514]
> 6.30	> 6.30	O=c1[nH]c2cc(/C=C3\c4ccccc4COc4cc(F)ccc43)ccc2o1 [Example 633]
> 6.30	> 6.30	O=c1[nH]c2cc(/C=C3/c4ccccc4COc4cc(F)ccc43)ccc2o1 [Example 632]
> 6.30	> 6.30	COc1ccc2c(c1)CSc1ccccc1C2=C(C)c1cccc(NS(C)(=O)=O)c1 [Example 840]
> 6.30	> 6.30	CS(=O)(=O)Nc1cccc(C=C2c3ccccc3C3C(c4ccccc42)C3(F)F)c1 (centres unmarked) [Example 255, N-[3-(8,8-Difluoro-4-ylidinemethyl-2,3,5,6-dibenzobicyclo[5.1.0]octane)-phenyl]-methanesulfonamide]
> 6.30	> 6.30	COc1cc2c(cc1OC)C(=Cc1cccc(NS(C)(=O)=O)c1)c1ccccc1CC2 [Example 170(b), N-[3-(2,3-Dimethoxy-10,11-dihydro-dibenzo[a,d]cyclohepten-5-ylidenemethyl)-phenyl]-methanesulfonamide]
> 6.30	> 6.30	CS(=O)(=O)Nc1cccc(/C=C2/c3ccccc3CCc3cc(C(N)=O)ccc32)c1 [Example 415]
> 6.30	> 6.30	CS(=O)(=O)Nc1cccc(/C=C2\c3ccc(F)cc3CCc3nc(C#N)ccc32)c1 [Example 547]
> 6.30	> 6.30	CS(=O)(=O)Nc1cccc(/C=C2/c3ccccc3CSc3cc(F)ccc32)c1 [Example 745]
> 6.30	> 6.30	O=c1[nH]c2cc(C=C3c4ccc(F)cc4CCc4cc(F)ccc43)ccc2o1 [Example 458]
> 6.30	> 6.30	CN(C)S(=O)(=O)c1ccccc1C=C1c2ccccc2CCc2ccccc21 [Example 5, 2-(10,11-Dihydro-dibenzo[a,d]cyclohepten-5-ylidenemethyl)-N,N-dimethyl-benzenesulfonamide]
> 6.30	> 6.30	CSc1ccc2c(c1)CCc1ccccc1/C2=C\c1cccc(NS(C)(=O)=O)c1 [Example 388]
> 6.30	> 6.30	OCc1cccc(C=C2c3ccccc3CCc3ccccc32)c1 [Example 75, [3-(10,11-Dihydro-dibenzo[a,d]cyclohepten-5-ylidenemethyl)-phenyl]-methanol]
> 6.30	> 6.30	COc1cccc(C=C2c3ccccc3C(=O)N(C)c3ccc(Cl)cc32)c1 [Example 656]
> 6.30	> 6.30	C/C(=C1\c2ccccc2COc2cc(C)ccc21)c1cccc(NS(C)(=O)=O)c1 [Example 784]
> 6.30	> 6.30	CS(=O)(=O)Nc1cccc(C=C2c3ccc(Cl)cc3CSc3ccccc32)c1 [Example 693]
